Target: Neurotensin receptor type 1 (Rattus norvegicus, UniProt P20789)
Assay: Tested for binding affinity against Neurotensin receptor

Chain of Neurotensin receptor type 1 (P20789 whole entry): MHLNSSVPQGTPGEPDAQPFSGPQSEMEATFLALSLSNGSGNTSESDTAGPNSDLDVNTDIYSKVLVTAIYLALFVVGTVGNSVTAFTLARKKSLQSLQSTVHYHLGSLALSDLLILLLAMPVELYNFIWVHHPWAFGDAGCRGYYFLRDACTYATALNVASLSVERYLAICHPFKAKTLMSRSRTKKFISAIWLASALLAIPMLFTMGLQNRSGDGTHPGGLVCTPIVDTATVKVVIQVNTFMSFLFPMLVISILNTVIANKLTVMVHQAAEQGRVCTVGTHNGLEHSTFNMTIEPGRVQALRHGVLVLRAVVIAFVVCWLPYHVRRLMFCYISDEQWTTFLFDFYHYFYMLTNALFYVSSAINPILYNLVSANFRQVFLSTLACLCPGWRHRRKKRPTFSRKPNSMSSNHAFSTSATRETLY

Point of comparison: CC[C@H](C)[C@H](NC(=O)N(Cc1ccc(O)cc1)c1cccc(NC(=O)[C@H](CCCCN)NC(=O)OC(C)(C)C)c1)C(=O)N[C@@H](CC(C)C)C(=O)O, Ki 1.25 µM. Against it:
- CC[C@H](C)[C@H](NC(=O)[C@H](Cc1ccc(O)cc1)c1cccc(NC(=O)[C@H](CCCCN)NC(=O)OC(C)(C)C)c1)C(=O)N[C@@H](CC(C)C)C(=O)O — 43-fold lower, 0.029 µM
- CC[C@H](C)[C@H](NC(=O)N(Cc1ccc(O)cc1)c1cccc(NC[C@H](CCCCN)NC(=O)OC(C)(C)C)c1)C(=O)N[C@@H](CC(C)C)C(=O)O — 1.7-fold lower, 0.73 µM
- CC[C@H](C)[C@H](NC(=O)N(Cc1ccc(O)cc1)c1cccc(NC(=O)[C@H](CCCCN)NC(=O)OC(C)(C)C)c1F)C(=O)N[C@@H](CC(C)C)C(=O)O — 1.8-fold higher, 2.2 µM
- CC[C@H](C)[C@H](NC(=O)N(Cc1ccc(F)cc1)c1cccc(NC(=O)[C@H](CCCCN)NC(=O)OC(C)(C)C)c1)C(=O)N[C@@H](CC(C)C)C(=O)O — within 1.5-fold, 0.89 µM
- CC[C@H](C)[C@H](NC(=O)N(Cc1ccc(O)cc1)c1ccc(F)c(NC(=O)[C@H](CCCCN)NC(=O)OC(C)(C)C)c1)C(=O)N[C@@H](CC(C)C)C(=O)O — higher, > 10 µM

Reference: ChEMBL document CHEMBL1152097, “Preparation of neurotensin analogs with a novel pro-tyr replacement” (Bioorg Med Chem Lett, 1995)
